Laboratory results taken from US8507509B2, “Saturated and insaturated bi- or tricyclic aryloxyacetamine derivatives and their use as fungicides” (Syngenta Crop Protection LLC, priority 2007, dated 2013).

Legend:
[1] = test system: Plasmopara viticola; assay: Plasmopara viticola (downy mildew of grapevine), grapevine leaf disk assay, preventive; assay type: in vivo; conditions: foliar, 168 h, 200 ppm, grapevine leaf disks, assessed seven days after inoculation, read-out: control of fungal infection, Plasmopara viticola
[2] = test system: Phytophthora infestans; assay: whole plant or invertebrate; assay type: in vivo; conditions: in Solanum lycopersicum, foliar, 96 h, read-out: control of fungal infection, Phytophthora infestans
[3] = test system: Erysiphe graminis f.sp. tritici; assay: Erysiphe graminis f.sp. tritici (wheat powdery mildew), wheat leaf segment assay, preventive; assay type: in vivo; conditions: Blumeria graminis, foliar, 96 h; 200 ppm; wheat leaf segments; assessed four days after inoculation; read-out: control of fungal infection, Etysiphe graminis f.sp. tritici
[4] = test system: Septoria tritici; assay: Septoria tritici (leaf blotch), liquid culture growth inhibition in nutrient broth; assay type: cell-based; conditions: Zymoseptoria tritici; 200 ppm; PDB broth, 24 C; inhibition of growth determined photometrically after 72 hrs; read-out: control of fungal infection, Septoria tritici
[5] = test system: Pythium ultimum; assay: Pythium ultimum (Damping off), liquid culture growth inhibition in potato dextrose broth; assay type: cell-based; conditions: Globisporangium ultimum; 20 ppm; potato dextrose broth, 24° C.; inhibition of growth determined photometrically after 48 hours; read-out: control of fungal infection, Pythium ultimum
[6] = test system: Septoria nodorum; assay: Septoria nodorum (wheat glume blotch), wheat leaf segment assay, preventive; assay type: in vivo; conditions: Parastagonospora nodorum, foliar, 96 h; 200 ppm; wheat leaf segments; assessed four days after inoculation; read-out: control of fungal infection, Septoria nodorum

CON=CC(C)(C)NC(=O)C(OC)Oc1ccc2ncc(Br)cc2c1 (centres unmarked) [Compound No. 70, 2-(3-Bromo-quinolin-6-yloxy)-2-methoxy-N-(2-methoxyimino-1,1-dimethyl-ethyl)-acetamide]
≥ 60%: pest or weed control at 200 ppm [1] | pest or weed control at 200 ppm [2] | pest or weed control at 200 ppm [3] | inhibition of growth at 200 ppm [4] | inhibition of growth at 20 ppm [5]

CON=C(Cc1ccsc1)C(C)(C)NC(=O)C(Oc1ccc2ncc(Br)cc2c1)SC (centres unmarked) [Compound No. 124, 2-(3-Bromo-quinolin-6-yloxy)-N-{2-[(E or Z)-methoxyimino]-1,1-dimethyl-3-thiophen-3-yl-propyl}-2-methylsulfanyl-acetamide]
≥ 60%: pest or weed control at 200 ppm [6] | inhibition of growth at 200 ppm [4]

CON=CCC(C)(C)NC(=O)C(Oc1ccc2ncc(I)cc2c1)SC (centres unmarked) [Compound No. 46, 2-(3-Iodo-quinolin-6-yloxy)-N-(3-methoxyimino-1,1-dimethyl-propyl)-2-methylsulfanyl-acetamide]
≥ 60%: pest or weed control at 200 ppm [1] | pest or weed control at 200 ppm [2] | pest or weed control at 200 ppm [3] | pest or weed control at 200 ppm [6] | inhibition of growth at 200 ppm [4]

COCC(=O)ON=CCC(C)(C)NC(=O)C(Oc1cc(C)c2ncc(I)cc2c1)SC (centres unmarked) [Compound No. 103, 2-(3-Iodo-8-methyl-quinolin-6-yloxy)-N-(3-methoxyacetoxyimino-1,1-dimethyl-propyl)-2-methylsulfanyl-acetamide]
≥ 60%: pest or weed control at 200 ppm [1] | pest or weed control at 200 ppm [3] | pest or weed control at 200 ppm [6] | inhibition of growth at 200 ppm [4]

C#CCON=CC(C)(C)NC(=O)C(Oc1ccc2ncc(Br)cc2c1)SC (centres unmarked) [Compound No. 17, 2-(3-Bromo-quinolin-6-yloxy)-N-(1,1-dimethyl-2-prop-2-ynyloxyimino-ethyl)-2-methylsulfanyl-acetamide]
≥ 60%: pest or weed control at 200 ppm [1] | pest or weed control at 200 ppm [2] | pest or weed control at 200 ppm [3] | pest or weed control at 200 ppm [6] | inhibition of growth at 200 ppm [4] | inhibition of growth at 20 ppm [5]

CSC(Oc1ccc2ncc(Br)cc2c1)C(=O)NC(C)(C)C=NOCC1CCCO1 (centres unmarked) [Compound No. 143, 2-(3-Bromo-quinolin-6-yloxy)-N-[1,1-dimethyl-2-(tetrahydro-furan-2-ylmethoxyimino)-ethyl]-2-methylsulfanyl-acetamide]
≥ 60%: pest or weed control at 200 ppm [1] | pest or weed control at 200 ppm [2] | pest or weed control at 200 ppm [3] | inhibition of growth at 200 ppm [4] | inhibition of growth at 20 ppm [5]

CCC(Oc1cc2cc(Br)cnc2cc1F)C(=O)NC(C)(C)C=NOC (centres unmarked) [Compound No. 154, 2-(3-Bromo-7-fluoro-quinolin-6-yloxy)-N-(2-methoxyimino-1,1-dimethyl-ethyl)-butyramide]
≥ 60%: pest or weed control at 200 ppm [1] | pest or weed control at 200 ppm [2] | pest or weed control at 200 ppm [3] | pest or weed control at 200 ppm [6] | inhibition of growth at 200 ppm [4]

CCC(Oc1ccc2ncc(I)cc2c1)C(=O)NC(C)(C)C=NO (centres unmarked) [Compound No. 152, N-(2-Hydroxyimino-1,1-dimethyl-ethyl)-2-(3-iodo-quinolin-6-yloxy)-butyramide]
≥ 60%: pest or weed control at 200 ppm [1] | pest or weed control at 200 ppm [2] | pest or weed control at 200 ppm [3] | inhibition of growth at 200 ppm [4] | inhibition of growth at 20 ppm [5]

CON=CC(C)(C)NC(=O)C(Oc1cc(C)c2ncc(I)cc2c1)SC (centres unmarked) [Compound No. 44, 2-(3-Iodo-8-methyl-quinolin-6-yloxy)-N-(2-methoxyimino-1,1-dimethyl-ethyl)-2-methylsulfanyl-acetamide]
≥ 60%: pest or weed control at 200 ppm [1] | pest or weed control at 200 ppm [3] | inhibition of growth at 200 ppm [4] | inhibition of growth at 20 ppm [5]

CON=CC(C)(C)NC(=O)C(Oc1cc(Br)c2ncc(Br)cc2c1)SC (centres unmarked) [Compound No. 34, 2-(3,8-Dibromo-quinolin-6-yloxy)-N-(2-methoxyimino-1,1-dimethyl-ethyl)-2-methylsulfanyl-acetamide]
≥ 60%: pest or weed control at 200 ppm [6] | inhibition of growth at 200 ppm [4]

C=CCON=CC(C)(C)NC(=O)C(CC)Oc1ccc2ncc(I)cc2c1 (centres unmarked) [Compound No. 4, N-(2-Allyloxyimino-1,1-dimethyl-ethyl)-2-(3-iodo-quinolin-6-yloxy)-butyramide]
≥ 60%: pest or weed control at 200 ppm [1] | pest or weed control at 200 ppm [2] | pest or weed control at 200 ppm [3] | inhibition of growth at 200 ppm [4] | inhibition of growth at 20 ppm [5]

CCC(Oc1ccc2ncc(Br)cc2c1)C(=O)NC(C)(C)C=NOCCF (centres unmarked) [Compound No. 151, 2-(3-Bromo-quinolin-6-yloxy)-N-[2-(2-fluoro-ethoxyimino)-1,1-dimethyl-ethyl]-butyramide]
≥ 60%: pest or weed control at 200 ppm [1] | pest or weed control at 200 ppm [2] | pest or weed control at 200 ppm [3] | inhibition of growth at 200 ppm [4] | inhibition of growth at 20 ppm [5]

C#Cc1cnc2c(C)cc(OC(CC)C(=O)NC(C)(C)C=NOC)cc2c1 (centres unmarked) [Compound No. 132, 2-(3-Ethynyl-8-methyl-quinolin-6-yloxy)-N-(2-methoxyimino-1,1-dimethyl-ethyl)-butyramide]
≥ 60%: pest or weed control at 200 ppm [1] | pest or weed control at 200 ppm [2] | pest or weed control at 200 ppm [3] | pest or weed control at 200 ppm [6] | inhibition of growth at 200 ppm [4] | inhibition of growth at 20 ppm [5]

CSC(Oc1ccc2ncc(Br)cc2c1)C(=O)NC(C)(C)C=NO (centres unmarked) [Compound No. 19, 2-(3-Bromo-quinolin-6-yloxy)-N-(2-hydroxyimino-1,1-dimethyl-ethyl)-2-methylsulfanyl-acetamide]
≥ 60%: pest or weed control at 200 ppm [1] | pest or weed control at 200 ppm [2] | pest or weed control at 200 ppm [3] | inhibition of growth at 200 ppm [4] | inhibition of growth at 20 ppm [5]

CSC(Oc1ccc2ncc(Br)cc2c1)C(=O)NC(C)(C)C=NOCC#N (centres unmarked) [Compound No. 140, 2-(3-Bromo-quinolin-6-yloxy)-N-(2-cyanomethoxyimino-1,1-dimethyl-ethyl)-2-methylsulfanyl-acetamide]
≥ 60%: pest or weed control at 200 ppm [1] | pest or weed control at 200 ppm [2] | pest or weed control at 200 ppm [3] | inhibition of growth at 200 ppm [4] | inhibition of growth at 20 ppm [5]

CON=C(c1ccccc1)C(C)(C)NC(=O)C(Oc1ccc2ncc(Br)cc2c1)SC (centres unmarked) [Compound No. 130, 2-(3-Bromo-quinolin-6-yloxy)-N-{2-[(E or Z)-methoxyimino]-1,1-dimethyl-2-phenyl-ethyl}-2-methylsulfanyl-acetamide]
≥ 60%: pest or weed control at 200 ppm [1] | pest or weed control at 200 ppm [2] | pest or weed control at 200 ppm [3] | pest or weed control at 200 ppm [6] | inhibition of growth at 200 ppm [4] | inhibition of growth at 20 ppm [5]

COCC(C)(C=NOC)NC(=O)C(Oc1cc(C)c2ncc(Br)cc2c1)SC (centres unmarked) [Compound No. 63, 2-(3-Bromo-8-methyl-quinolin-6-yloxy)-N-(2-methoxyimino-1-methoxymethyl-1-methyl-ethyl)-2-methylsulfanyl-acetamide]
≥ 60%: pest or weed control at 200 ppm [1] | pest or weed control at 200 ppm [2] | pest or weed control at 200 ppm [3] | pest or weed control at 200 ppm [6] | inhibition of growth at 200 ppm [4]

CCON=CC(C)(C)NC(=O)C(Oc1cc(C)c2ncc(I)cc2c1)SC (centres unmarked) [Compound No. 42, N-(2-Ethoxyimino-1,1-dimethyl-ethyl)-2-(3-iodo-8-methyl-quinolin-6-yloxy)-2-methylsulfanyl-acetamide]
≥ 60%: pest or weed control at 200 ppm [1] | pest or weed control at 200 ppm [2] | pest or weed control at 200 ppm [6]

CCON=CC(C)(C)NC(=O)C(Oc1ccc2ncc(I)cc2c1)SC (centres unmarked) [Compound No. 51, N-(2-Ethoxyimino-1,1-dimethyl-ethyl)-2-(3-iodo-quinolin-6-yloxy)-2-methylsulfanyl-acetamide]
≥ 60%: pest or weed control at 200 ppm [1] | pest or weed control at 200 ppm [3] | inhibition of growth at 200 ppm [4] | inhibition of growth at 20 ppm [5]

CSC(Oc1cc(C)c2ncc(I)cc2c1)C(=O)NC(C)(C)CC=NO (centres unmarked) [Compound No. 41, N-(3-Hydroxyimino-1,1-dimethyl-propyl)-2-(3-iodo-8-methyl-quinolin-6-yloxy)-2-methylsulfanylacetamide]
≥ 60%: pest or weed control at 200 ppm [1] | pest or weed control at 200 ppm [2] | pest or weed control at 200 ppm [3] | inhibition of growth at 200 ppm [4] | inhibition of growth at 20 ppm [5]

C#Cc1cnc2ccc(OC(SC)C(=O)NC(C)(C)C=NOC)cc2c1 (centres unmarked) [Compound No. 38, 2-(3-Ethynyl-quinolin-6-yloxy)-N-(2-methoxyimino-1,1-dimethyl-ethyl)-2-methylsulfanyl-acetamide]
≥ 60%: pest or weed control at 200 ppm [1] | pest or weed control at 200 ppm [2] | pest or weed control at 200 ppm [3] | pest or weed control at 200 ppm [6] | inhibition of growth at 200 ppm [4]

C#Cc1cnc2ccc(OC(CC)C(=O)NC(C)(C)C=NOC)cc2c1 (centres unmarked) [Compound No. 131, 2-(3-Ethynyl-quinolin-6-yloxy)-N-(2-methoxyimino-1,1-dimethyl-ethyl)-butyramide]
≥ 60%: pest or weed control at 200 ppm [1] | pest or weed control at 200 ppm [2] | pest or weed control at 200 ppm [3] | pest or weed control at 200 ppm [6] | inhibition of growth at 200 ppm [4] | inhibition of growth at 20 ppm [5]

CSC(Oc1ccc2ncc(Br)cc2c1)C(=O)NC(C)(C)C=NOc1ccccc1 (centres unmarked) [Compound No. 8, 2-(3-Bromo-quinolin-6-yloxy)-N-(1,1-dimethyl-2-phenoxyimino-ethyl)-2-methylsulfanyl-acetamide]
≥ 60%: pest or weed control at 200 ppm [1] | pest or weed control at 200 ppm [2] | inhibition of growth at 200 ppm [4] | inhibition of growth at 20 ppm [5]
